Test results: ChEMBL document CHEMBL3132756, “Synthesis, structureactivity relationships and stereochemical investigations of new tricyclic pyridazinone derivatives as potential STAT3 inhibitors” (Medchemcomm, 2013)
Activity calls are given as the source filed them. The rule behind the calls is not given here.

Target: Signal transducer and activator of transcription 3 (Homo sapiens) (UniProt P40763)
Assay: Inhibition of STAT3 (unknown origin) expressed in human HCT116 cells at 10 uM by dual luciferase assay relative to (+) enantiomer
Format: cell-based
Conditions: HCT-116

Signal transducer and activator of transcription 3 (Homo sapiens), sequence (P40763 whole entry, the tested form may be a part): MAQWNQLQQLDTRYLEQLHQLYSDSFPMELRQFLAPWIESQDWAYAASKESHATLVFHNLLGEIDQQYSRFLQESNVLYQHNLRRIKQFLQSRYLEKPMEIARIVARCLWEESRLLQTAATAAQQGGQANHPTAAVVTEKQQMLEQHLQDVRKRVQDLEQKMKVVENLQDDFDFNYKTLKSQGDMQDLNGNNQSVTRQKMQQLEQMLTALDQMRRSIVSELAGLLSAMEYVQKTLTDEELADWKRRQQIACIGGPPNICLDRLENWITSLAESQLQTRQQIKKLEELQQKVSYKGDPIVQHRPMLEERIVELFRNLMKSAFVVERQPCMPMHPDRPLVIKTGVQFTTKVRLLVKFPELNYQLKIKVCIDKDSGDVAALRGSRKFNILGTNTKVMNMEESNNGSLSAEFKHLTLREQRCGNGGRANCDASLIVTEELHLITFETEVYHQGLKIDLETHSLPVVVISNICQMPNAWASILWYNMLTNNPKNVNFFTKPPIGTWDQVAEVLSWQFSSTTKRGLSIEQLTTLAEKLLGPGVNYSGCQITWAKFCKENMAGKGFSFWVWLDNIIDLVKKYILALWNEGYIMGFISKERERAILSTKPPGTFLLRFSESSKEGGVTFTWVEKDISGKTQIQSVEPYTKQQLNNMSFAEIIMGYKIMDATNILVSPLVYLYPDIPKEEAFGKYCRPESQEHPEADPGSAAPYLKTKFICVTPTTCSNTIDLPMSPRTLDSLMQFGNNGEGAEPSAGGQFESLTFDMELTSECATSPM

SMILES	fold change (FC)
CCOC(=O)CCCN1N=C2c3ccccc3CC[C@H]2CC1=O	2

Target: Signal transducer and activator of transcription 3 (Homo sapiens) (UniProt P40763)
Assay: Inhibition of STAT3 (unknown origin) expressed in human HCT116 cells at 2 uM by dual luciferase assay
Format: cell-based
Conditions: HCT-116

SMILES	inhibition [%]
O=C(O)CCCN1N=C2c3ccccc3CCC2CC1=O (stereo unspecified)	8
CCOC(=O)CCCCN1N=C2c3ccccc3CCC2CC1=O (stereo unspecified)	21
CCCCCN1N=C2c3ccccc3CCC2CC1=O (stereo unspecified)	22
CCNC(=O)CCCN1N=C2c3ccccc3CCC2CC1=O (stereo unspecified)	16
O=C(O)CCN1N=C2c3ccccc3CCC2CC1=O (stereo unspecified)	-2
CCNCCCCN1N=C2c3ccccc3CCC2CC1=O (stereo unspecified)	3
CCOC(=O)CN1N=C2c3ccccc3CCC2CC1=O (stereo unspecified)	3
CCOC(=O)CCN1N=C2c3ccccc3CCC2CC1=O (stereo unspecified)	30
CCOC(=O)CCCN1N=C2c3cc(OC)cc(OC)c3CCC2CC1=O (stereo unspecified)	23
CCOC(=O)CCCN1N=C2c3ccccc3CC2CC1=O (stereo unspecified)	28
C[C@H]1COC2=C1C(=O)C(=O)c1c2ccc2c1CCCC2(C)C	25
CCOC(=O)CCCN1N=C2c3ccccc3CCC2CC1=O (racemic)	46
CCOC(=O)CCCn1nc2c(cc1=O)CCc1ccccc1-2	1
CCCCN1N=C2c3ccccc3CCC2CC1=O (stereo unspecified)	-9
CCOC(=O)CCCCCN1N=C2c3ccccc3CCC2CC1=O (stereo unspecified)	25
O=C1CC2CCc3ccccc3C2=NN1CCCc1nn[nH]n1 (stereo unspecified)	-9
O=C1CC2CCc3ccccc3C2=NN1 (stereo unspecified)	-6
CCOC(=O)CCCN1N=C2c3ccc(Cl)cc3CCC2CC1=O (stereo unspecified)	9
CCOC(=O)CCCCCCN1N=C2c3ccccc3CCC2CC1=O (stereo unspecified)	22

Target: Signal transducer and activator of transcription 3 (Homo sapiens) (UniProt P40763)
Assay: Binding affinity to STAT3 SH2 domain (unknown origin) pre-incubated 15 mins before (FITC)-GpYLPQTV probe and measured after 90 mins by Alpha screen assay
Conditions: not given

SMILES	Activity
CCOC(=O)CCCN1N=C2c3ccccc3CCC2CC1=O (racemic)	inactive
